What all share (test): growth of human tumour cells (NCI), 48 h
Assay [1] has as its system SK-MEL-2 melanoma.
The test system of assay [2] is UACC-257 melanoma.
Assay [3] concerns OVCAR-8 ovarian.
Assay [4] concerns RXF 393 renal.
In assay [5] the test system is K-562 leukemia.
For assay [6], the system named is RPMI-8226 leukemia.
Assay [7] has as its system T-47D breast.
Assay [8] relates to SW-620 colon.
Assay [9] concerns HCT-15 colon.
Assay [10] deals with NCI/ADR-RES ovarian.

Molecules are shown by their SMILES.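 Cultured in 96-well plates, cells were exposed to test compound for 48 hours across five concentrations. Abbreviation: GI50, concentration required for 50% inhibition of growth. At the TGI there is no net growth.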 Some results are limits rather than exact numbers.

For `CO/C=C/C(=O)c1cc2cnc3c(=N)cc(NC(=O)C(C)C)c([nH]1)c23`, the GI50 in [1] was 0.0907 µM; in assay [2], 0.0901 µM; in assay [3] it was 0.113 µM; in [4] it was 0.0301 µM; in assay [5] it was 0.117 µM; in assay [6], 0.0149 µM. Moreover, the GI50 in [7] is 0.00998 µM; in assay [8], 0.0744 µM; in [9], 0.0431 µM. Also, the TGI in assay [1] came to 0.299 µM; in [2], 0.862 µM; in assay [3], 1.02 µM; in [4], 0.246 µM; in assay [5] it was 17.4 µM; in [6] it was 0.0906 µM. Besides, the TGI in assay [7] turned out to be 0.0439 µM; in [8], 0.718 µM; in assay [9], 0.99 µM.
Take `COc1c(O)c(OC)c2oc(-c3ccc(O)c(O)c3)c(OC)c(=O)c2c1O`: the TGI in [1] is 28.3 µM; in assay [10], more than 100 µM; in assay [2], more than 100 µM; in assay [3] it was more than 100 µM; in [5] it was more than 100 µM; in assay [6], more than 100 µM. Moreover, the TGI in assay [7] was 33 µM; in assay [8], more than 100 µM; in assay [9], more than 100 µM.
Take `C=CC(=O)NCCSCCCOC1(C(=O)O)CC(O)C(NC(C)=O)C(C(O)C(O)CO)O1` (stereo not given): the TGI in assay [1], in assay [2], in assay [3], in [4], in assay [5] and in [6] was more than 100 µM throughout. Moreover, the TGI in assay [8] and in assay [9] was more than 100 µM in each case.
In the case of `CC1=Nc2ccccc2NC(c2ccoc2)C1` (stereo not given), the TGI in [1], in assay [2], in assay [3], in assay [4], in assay [5] and in assay [6] was more than 100 µM throughout. For the same compound, the TGI in assay [8] and in [9] was more than 100 µM in each case.
Turning to `COC(=O)C(=O)C(C(=O)C(=O)Nc1cccc(C(C)=O)c1)c1nc2ccc([N+](=O)[O-])cc2[nH]c1=O` (stereo not given), the TGI in assay [1], in assay [2], in [3], in assay [4], in assay [5] and in assay [6] was more than 100 µM throughout. For the same compound, the TGI in assay [8] and in assay [9] was more than 100 µM in each case.
As to `O=[N+]([O-])c1ccc(C2CC(c3ccccc3Cl)=Nc3ccccc3S2)cc1` (stereo not given), the TGI in assay [1] amounted to 24.5 µM; in assay [2], 35.5 µM; in assay [3], 5.59 µM; in assay [4], 12.6 µM; in [5], 6.35 µM; in [6], 5.14 µM. In addition, the TGI is 4.78 µM in assay [8] and 10.9 µM in assay [9].
With `OC(c1cc(-c2cccc(Cl)c2)nc2ccccc12)C1CCCCN1` (stereo not given), the GI50 in assay [1] is 2.18 µM; in assay [10], 1.99 µM; in [2], 1.85 µM; in assay [3], 1.79 µM; in [5] it was 1.39 µM; in assay [6] it was 2.68 µM. In addition, the GI50 was 2.09 µM in assay [7] and 1.91 µM in [9]. In addition, the TGI came to 4.02 µM in assay [1]; 4.02 µM in assay [10]; 3.33 µM in assay [2]; 3.42 µM in [3]; 4.46 µM in [5]; 6.45 µM in assay [6]. The TGI in assay [7] is 3.93 µM; in [9], 3.91 µM.
With `CC(C)N1CC2CN(Cc3ccccc3)CC(C1)C2=O`, the TGI in [1], in assay [10], in assay [2], in assay [3], in assay [4] and in assay [5] was more than 100 µM each time. In addition, the TGI in assay [6], in assay [8] and in assay [9] was more than 100 µM each time.
On to `COC(=O)CCC(NC(=S)N/N=C/c1ccccn1)C(=O)OC` (stereo not given), for which the TGI in assay [1], in [2], in assay [3], in assay [4], in assay [5] and in assay [6] was more than 100 µM throughout. The TGI in [8] and in [9] was more than 100 µM in each case.
For `O=C1/C(=N\O)c2ccccc2S1(=O)=O`, the TGI in assay [1], in [2], in assay [3], in assay [4], in assay [5] and in assay [6] was more than 100 µM in each case. Also, the TGI in assay [8] and in assay [9] was more than 100 µM in each case.
Turning to `C=C=C(C(=O)OC)S(=O)c1ccccc1[N+](=O)[O-]` (stereo not given), the TGI in assay [1], in assay [2], in [3], in [4], in assay [5] and in assay [6] was more than 100 µM each time. Also, the TGI in assay [8] and in [9] was more than 100 µM in each case.
On to `O=S(=O)([O-])c1ccc(N=Cc2ccccc2[O-])cc1.O=S(=O)([O-])c1ccc(N=Cc2ccccc2[O-])cc1.[O]=[U+2]=[O]`, for which the GI50 in assay [1] is more than 100 µM; in assay [2] it was more than 100 µM; in [3], more than 100 µM; in [4], 81.7 µM; in assay [5] it was more than 100 µM; in assay [6], more than 100 µM. For the same compound, the GI50 is more than 100 µM in assay [8] and 31.3 µM in assay [9]. Further, the TGI in assay [1], in assay [2], in assay [3], in assay [4], in assay [5] and in assay [6] was more than 100 µM each time. Moreover, the TGI in assay [8] and in assay [9] was more than 100 µM each time.
With `CN1C(=O)CCC2[C@@H]3CC=C4C[C@@H](O)CC[C@]4(C)C3CC[C@@]21C` (stereo not given in full), the TGI in assay [1], in assay [2], in assay [3], in [4], in assay [5] and in [6] was more than 100 µM throughout. The TGI in [8] and in [9] was more than 100 µM throughout.
With `C=C1CC2CCCC12C=O` (stereo not given), the TGI in [10], in assay [2], in [3], in assay [5], in [6] and in [7] was more than 10 µM in each case. For the same compound, the TGI in [8] and in assay [9] was more than 10 µM throughout.

For the origin of these results see PubChem BioAssay (NCI).
